Results: ChEMBL document CHEMBL4311939, “Design and evaluation of novel tetracyclic benzofurans as palm site allosteric inhibitors of HCV NS5B polymerase” (Bioorg Med Chem Lett, 2019)
Values after ≈ are worked out from the molar mass of the structure shown.

Key:
[1] = Cmax in rat at 5 mg/kg, po; assay type: ADME, organism-based; design: dose 5 mg/kg, route oral; settings: in vivo
[2] = Clearance in rat at 1 mg/kg, iv; assay type: ADME, organism-based; settings: in vivo
[3] = AUC in rat at 5 mg/kg, po; assay type: ADME, organism-based; settings: in vivo
[4] = Tmax in rat at 5 mg/kg, po; assay type: ADME, organism-based; settings: in vivo
[5] = Oral bioavailability in rat at 5 mg/kg; assay type: ADME, organism-based; settings: in vivo
[6] = Drug concentration in rat plasma at 5 mg/kg, po after 24 hrs; assay type: ADME, organism-based
[7] = Half life in rat at 1 mg/kg, iv; assay type: ADME, organism-based; settings: in vivo
[8] = AUC in dog at 2 mg/kg, po; assay type: ADME, organism-based, Canis lupus familiaris; settings: in vivo
[9] = Apparent permeability in dog MDCK cells; assay type: ADME, cell-based, Canis lupus familiaris
[10] = target: Voltage-dependent L-type calcium channel subunit alpha-1C (Homo sapiens, UniProt Q13936); assay: Inhibition of Cav1.2 (unknown origin)
[11] = Oral bioavailability in dog at 2 mg/kg; assay type: ADME, organism-based, Canis lupus familiaris; settings: in vivo
[12] = Cmax in monkey at 3 mg/kg, po; assay type: ADME, organism-based, Macaca mulatta; design: dose 3 mg/kg, route oral; settings: rhesus monkey, in vivo
[13] = Oral bioavailability in monkey at 3 mg/kg; assay type: ADME, organism-based, Macaca mulatta; settings: rhesus monkey, in vivo
[14] = Drug concentration in monkey plasma at 3 mg/kg, po after 24 hrs; assay type: ADME, organism-based, Macaca mulatta; settings: rhesus monkey
[15] = Half life in dog at 0.5 mg/kg, iv; assay type: ADME, organism-based, Canis lupus familiaris; settings: in vivo
[16] = Drug metabolism in solvent assessed as oxidation by measuring cpd 1 formation under air exposure
[17] = Cmax in dog at 2 mg/kg, po; assay type: ADME, organism-based, Canis lupus familiaris; design: dose 2 mg/kg, route oral; settings: in vivo
Cytochrome P450 3A4 = Cytochrome P450 3A4 (Homo sapiens, UniProt P08684); assay: Inhibition of CYP3A4 (unknown origin); assay type: ADME
[18] = target: Sodium channel protein type 5 subunit alpha (Homo sapiens, UniProt Q14524); assay: Inhibition of Nav1.5 (unknown origin)
[19] = Clearance in dog at 0.5 mg/kg, iv; assay type: ADME, organism-based, Canis lupus familiaris; settings: in vivo
[20] = AUC in monkey at 3 mg/kg, po; assay type: ADME, organism-based, Macaca mulatta; settings: rhesus monkey, in vivo
[21] = target: T1, Nuclear receptor subfamily 1 group I member 2 (Homo sapiens, UniProt O75469); assay: Transactivation of PXR (unknown origin); assay type: ADME
T1 sequence (O75469 whole entry): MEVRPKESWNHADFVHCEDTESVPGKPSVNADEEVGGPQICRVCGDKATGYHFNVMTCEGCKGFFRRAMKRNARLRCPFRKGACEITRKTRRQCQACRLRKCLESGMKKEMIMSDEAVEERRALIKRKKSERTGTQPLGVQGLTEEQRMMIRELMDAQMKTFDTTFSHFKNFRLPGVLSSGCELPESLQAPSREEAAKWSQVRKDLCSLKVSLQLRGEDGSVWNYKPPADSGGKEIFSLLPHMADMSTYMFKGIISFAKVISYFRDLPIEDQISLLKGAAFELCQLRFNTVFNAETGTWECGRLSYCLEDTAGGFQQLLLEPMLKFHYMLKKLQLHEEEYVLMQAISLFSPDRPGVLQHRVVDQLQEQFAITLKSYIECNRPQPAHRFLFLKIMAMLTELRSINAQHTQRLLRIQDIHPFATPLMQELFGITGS

[22] = target: Voltage-gated inwardly rectifying potassium channel KCNH2 (Homo sapiens, UniProt Q12809); assay: Inhibition of human ERG by patch clamp assay
[23] = Drug concentration in dog plasma at 2 mg/kg, po after 24 hrs; assay type: ADME, organism-based, Canis lupus familiaris
[24] = Half life in monkey at 1 mg/kg, iv; assay type: ADME, organism-based, Macaca mulatta; settings: rhesus monkey, in vivo
[25] = Clearance in monkey at 1 mg/kg, iv; assay type: ADME, organism-based, Macaca mulatta; settings: rhesus monkey, in vivo
[26] = AUC in rat at 650 mg/kg, po using spray dry sample; assay type: ADME, organism-based; settings: in vivo
[27] = Cmax in rat at 650 mg/kg, po using spray dry sample; assay type: ADME, organism-based; design: dose 650 mg/kg, route oral; settings: in vivo
[28] = AUC in rat at 10 mg/kg, po using spray dry sample; assay type: ADME, organism-based; settings: in vivo
[29] = Cmax in rat at 100 mg/kg, po using spray dry sample; assay type: ADME, organism-based; design: dose 100 mg/kg, route oral; settings: in vivo
[30] = AUC in rat at 100 mg/kg, po using spray dry sample; assay type: ADME, organism-based; settings: in vivo
[31] = Cmax in rat at 10 mg/kg, po using spray dry sample; assay type: ADME, organism-based; design: dose 10 mg/kg, route oral; settings: in vivo
[32] = Solubility of the compound in FaSSIF using crystalline sample; assay type: physicochemical

Sequence of Voltage-dependent L-type calcium channel subunit alpha-1C (Q13936 whole entry): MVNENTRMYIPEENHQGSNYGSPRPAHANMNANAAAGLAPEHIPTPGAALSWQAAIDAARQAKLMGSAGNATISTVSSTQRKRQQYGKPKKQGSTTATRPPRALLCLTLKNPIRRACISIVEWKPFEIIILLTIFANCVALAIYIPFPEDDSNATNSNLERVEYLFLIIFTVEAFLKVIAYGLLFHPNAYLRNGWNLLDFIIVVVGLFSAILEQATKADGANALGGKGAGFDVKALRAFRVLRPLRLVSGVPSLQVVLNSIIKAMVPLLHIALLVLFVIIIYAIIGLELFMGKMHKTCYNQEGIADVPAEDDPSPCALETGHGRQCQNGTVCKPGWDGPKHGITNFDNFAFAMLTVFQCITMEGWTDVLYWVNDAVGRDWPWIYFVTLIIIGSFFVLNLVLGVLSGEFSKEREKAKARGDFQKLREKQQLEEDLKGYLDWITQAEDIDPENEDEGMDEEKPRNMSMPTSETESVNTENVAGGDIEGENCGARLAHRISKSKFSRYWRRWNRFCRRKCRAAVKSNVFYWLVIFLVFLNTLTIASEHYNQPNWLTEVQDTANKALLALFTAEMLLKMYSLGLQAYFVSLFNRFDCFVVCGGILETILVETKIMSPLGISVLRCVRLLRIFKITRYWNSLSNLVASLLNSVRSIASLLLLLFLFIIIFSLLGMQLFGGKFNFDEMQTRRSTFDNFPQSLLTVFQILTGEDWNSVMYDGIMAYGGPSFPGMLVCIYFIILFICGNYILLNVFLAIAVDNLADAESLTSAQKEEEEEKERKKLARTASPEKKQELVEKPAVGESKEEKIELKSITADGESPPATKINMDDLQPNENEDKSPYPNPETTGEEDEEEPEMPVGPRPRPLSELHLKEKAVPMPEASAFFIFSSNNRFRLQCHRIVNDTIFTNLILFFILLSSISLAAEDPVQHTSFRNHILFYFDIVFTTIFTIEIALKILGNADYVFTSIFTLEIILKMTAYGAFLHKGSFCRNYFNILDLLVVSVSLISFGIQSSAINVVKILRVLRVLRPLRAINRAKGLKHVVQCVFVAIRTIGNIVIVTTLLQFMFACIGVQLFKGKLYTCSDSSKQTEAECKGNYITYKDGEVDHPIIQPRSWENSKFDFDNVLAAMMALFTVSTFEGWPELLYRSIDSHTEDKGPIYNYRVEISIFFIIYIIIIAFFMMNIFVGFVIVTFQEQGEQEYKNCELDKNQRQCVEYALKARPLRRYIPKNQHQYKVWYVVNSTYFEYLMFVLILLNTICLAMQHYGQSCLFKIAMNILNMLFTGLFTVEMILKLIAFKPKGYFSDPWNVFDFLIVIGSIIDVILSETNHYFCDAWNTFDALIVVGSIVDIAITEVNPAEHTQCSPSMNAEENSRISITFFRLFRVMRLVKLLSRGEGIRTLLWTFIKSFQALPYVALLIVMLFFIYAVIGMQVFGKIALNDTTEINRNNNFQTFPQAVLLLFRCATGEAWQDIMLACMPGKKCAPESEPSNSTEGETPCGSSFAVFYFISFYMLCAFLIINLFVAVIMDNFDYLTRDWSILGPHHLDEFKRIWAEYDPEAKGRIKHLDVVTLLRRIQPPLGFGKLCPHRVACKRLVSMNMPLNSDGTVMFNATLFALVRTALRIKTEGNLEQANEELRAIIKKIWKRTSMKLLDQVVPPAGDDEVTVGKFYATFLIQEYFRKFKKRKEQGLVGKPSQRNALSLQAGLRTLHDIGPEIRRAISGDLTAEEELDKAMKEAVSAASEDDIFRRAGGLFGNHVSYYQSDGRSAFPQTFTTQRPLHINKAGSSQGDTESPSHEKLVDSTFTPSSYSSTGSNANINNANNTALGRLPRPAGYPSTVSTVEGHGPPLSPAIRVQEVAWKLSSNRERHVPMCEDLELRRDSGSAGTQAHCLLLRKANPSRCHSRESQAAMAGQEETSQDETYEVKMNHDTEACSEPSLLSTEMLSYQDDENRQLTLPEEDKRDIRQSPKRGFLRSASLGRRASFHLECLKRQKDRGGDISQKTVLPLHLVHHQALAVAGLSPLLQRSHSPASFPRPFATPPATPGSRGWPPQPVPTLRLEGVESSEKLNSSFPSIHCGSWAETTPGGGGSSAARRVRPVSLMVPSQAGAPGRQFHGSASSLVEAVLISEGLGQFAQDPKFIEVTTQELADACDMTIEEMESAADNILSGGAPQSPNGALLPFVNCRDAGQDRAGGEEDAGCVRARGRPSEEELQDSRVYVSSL
Sequence of Cytochrome P450 3A4 (P08684 whole entry): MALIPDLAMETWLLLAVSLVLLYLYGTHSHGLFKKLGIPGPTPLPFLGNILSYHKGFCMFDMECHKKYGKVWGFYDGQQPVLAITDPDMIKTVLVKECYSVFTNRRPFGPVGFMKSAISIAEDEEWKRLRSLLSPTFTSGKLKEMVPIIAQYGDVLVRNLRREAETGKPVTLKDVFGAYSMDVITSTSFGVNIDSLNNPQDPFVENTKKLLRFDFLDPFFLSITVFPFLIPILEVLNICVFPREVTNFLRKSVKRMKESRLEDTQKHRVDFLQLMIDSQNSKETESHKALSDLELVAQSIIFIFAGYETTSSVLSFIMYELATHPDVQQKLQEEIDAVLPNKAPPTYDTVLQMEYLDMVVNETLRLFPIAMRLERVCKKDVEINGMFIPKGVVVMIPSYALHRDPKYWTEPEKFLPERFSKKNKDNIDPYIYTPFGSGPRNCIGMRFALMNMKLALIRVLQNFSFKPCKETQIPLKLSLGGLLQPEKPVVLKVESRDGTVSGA
Sequence of Sodium channel protein type 5 subunit alpha (Q14524 whole entry): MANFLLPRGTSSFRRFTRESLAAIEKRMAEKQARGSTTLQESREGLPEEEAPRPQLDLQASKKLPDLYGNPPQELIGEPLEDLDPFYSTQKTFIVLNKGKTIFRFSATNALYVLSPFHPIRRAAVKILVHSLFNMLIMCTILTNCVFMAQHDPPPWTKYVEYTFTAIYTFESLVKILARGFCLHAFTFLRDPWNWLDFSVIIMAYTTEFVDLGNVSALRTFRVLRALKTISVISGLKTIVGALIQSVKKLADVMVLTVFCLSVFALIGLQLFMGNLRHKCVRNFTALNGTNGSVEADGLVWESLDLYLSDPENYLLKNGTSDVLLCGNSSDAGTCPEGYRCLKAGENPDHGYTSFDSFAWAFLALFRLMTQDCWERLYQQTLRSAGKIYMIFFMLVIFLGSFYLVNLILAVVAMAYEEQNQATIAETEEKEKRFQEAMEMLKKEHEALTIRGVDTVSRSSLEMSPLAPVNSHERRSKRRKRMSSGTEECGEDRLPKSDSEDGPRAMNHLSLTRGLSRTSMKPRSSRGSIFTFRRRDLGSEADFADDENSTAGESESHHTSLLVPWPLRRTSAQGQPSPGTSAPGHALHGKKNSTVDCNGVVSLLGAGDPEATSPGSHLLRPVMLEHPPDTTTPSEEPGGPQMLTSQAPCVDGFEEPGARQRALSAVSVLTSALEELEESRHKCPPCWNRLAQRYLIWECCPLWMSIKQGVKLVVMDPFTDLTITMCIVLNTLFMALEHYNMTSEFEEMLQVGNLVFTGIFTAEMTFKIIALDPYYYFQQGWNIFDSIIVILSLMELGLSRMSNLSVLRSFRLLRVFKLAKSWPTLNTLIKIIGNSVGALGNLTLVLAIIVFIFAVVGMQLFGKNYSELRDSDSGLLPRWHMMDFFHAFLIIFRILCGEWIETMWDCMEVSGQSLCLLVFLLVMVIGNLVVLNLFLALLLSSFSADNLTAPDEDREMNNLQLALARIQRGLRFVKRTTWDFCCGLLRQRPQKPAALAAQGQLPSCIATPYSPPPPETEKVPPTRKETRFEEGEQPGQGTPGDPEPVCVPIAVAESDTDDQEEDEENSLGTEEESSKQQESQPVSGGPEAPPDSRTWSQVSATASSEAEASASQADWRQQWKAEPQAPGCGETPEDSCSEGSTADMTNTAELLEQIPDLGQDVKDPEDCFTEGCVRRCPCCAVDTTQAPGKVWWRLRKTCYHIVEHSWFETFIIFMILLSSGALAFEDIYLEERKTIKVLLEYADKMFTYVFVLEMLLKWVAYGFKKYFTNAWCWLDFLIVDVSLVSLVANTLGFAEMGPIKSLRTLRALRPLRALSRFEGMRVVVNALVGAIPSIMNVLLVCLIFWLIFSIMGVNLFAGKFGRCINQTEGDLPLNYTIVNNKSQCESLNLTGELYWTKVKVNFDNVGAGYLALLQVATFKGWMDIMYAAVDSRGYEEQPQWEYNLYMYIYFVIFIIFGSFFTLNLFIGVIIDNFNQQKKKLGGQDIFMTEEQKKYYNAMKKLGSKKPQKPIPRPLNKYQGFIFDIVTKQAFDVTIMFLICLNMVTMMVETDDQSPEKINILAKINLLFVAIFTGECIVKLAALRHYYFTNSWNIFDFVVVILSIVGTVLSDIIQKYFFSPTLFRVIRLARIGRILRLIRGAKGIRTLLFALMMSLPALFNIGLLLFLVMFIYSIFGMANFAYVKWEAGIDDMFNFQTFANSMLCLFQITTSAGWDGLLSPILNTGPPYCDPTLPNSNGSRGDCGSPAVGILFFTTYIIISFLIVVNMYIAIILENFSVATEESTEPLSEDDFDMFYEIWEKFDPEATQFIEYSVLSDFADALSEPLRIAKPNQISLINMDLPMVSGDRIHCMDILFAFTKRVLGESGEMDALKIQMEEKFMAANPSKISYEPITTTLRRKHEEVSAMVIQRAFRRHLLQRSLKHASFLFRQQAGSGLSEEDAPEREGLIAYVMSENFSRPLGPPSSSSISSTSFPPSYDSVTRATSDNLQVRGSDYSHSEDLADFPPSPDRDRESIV

| Structure (SMILES) | Cmax [1] [nM] | clearance [2] [mL/min/kg] | AUC [3] [µM·h] | Tmax [4] [h] | bioavailability [5] [%] | concentration at 24 h [6] [nM] | half-life [7] [min] | AUC [8] [µM·h] | Papp [9] [×10⁻⁶ cm/s] | IC50 [10] [µM] | bioavailability [11] [%] | Cmax [12] [nM] | bioavailability [13] [%] | concentration at 24 h [14] [nM] | half-life [15] [min] | Cmax [17] [nM] | IC50 (Cytochrome P450 3A4) [µM] | IC50 [18] [µM] | clearance [19] [mL/min/kg] | AUC [20] [µM·h] | other results |
| --- | --- | --- | --- | --- | --- | --- | --- | --- | --- | --- | --- | --- | --- | --- | --- | --- | --- | --- | --- | --- | --- |
| CNC(=O)c1c(-c2ccc(F)cc2)oc2cc(N(C)S(C)(=O)=O)c(-c3ccc4c(n3)-c3cc5c(F)cccc5n3C4)cc12 | 120 | 5.2 | 1.1 | 3 | 4 | 10 | 576 | – | – | – | – | – | – | – | – | – | – | – | – | – | – |
| CNC(=O)c1c(-c2ccc(F)cc2)oc2cc(N(C)S(C)(=O)=O)c(-c3ccc4c(n3)-c3cc5c(F)cccc5n3CN4)cc12 | 350 | 16 | 1.4 | – | 16 | 2.2 | 228 | 2.3 | 8.9 | > 30 | 30 | 130 | 9.3 | 4 | 240 | 410 | > 50 | > 30 | 7.9 | 1 | Drug metabolism [16]: Metabolite detected; EC50 [21]: > 30 µM; IC50 [22]: > 30 µM; concentration at 24 h [23]: 11 nM; half-life [24]: 234 min; clearance [25]: 7.7 mL/min/kg |
| CNC(=O)c1c(-c2ccc(F)cc2)oc2cc(N(C)S(C)(=O)=O)c(-c3ccc4c(n3)-c3cc5c(F)cccc5n3CC4)cc12 | 950 | 2.3 | 8.8 | 4 | 18 | 69 | 720 | 9.2 | 14.2 | 18 | 54 | 320 | 22 | 6.3 | 780 | 1300 | > 50 | > 30 | 2.9 | 1.7 | AUC [26]: 181 µM·h; Cmax [27]: 11 µM; AUC [28]: 37 µM·h; Cmax [29]: 8.2 µM; AUC [30]: 100 µM·h; Cmax [31]: 4.3 µM; EC50 [21]: > 30 µM; IC50 [22]: > 30 µM; concentration at 24 h [23]: 76 nM; half-life [24]: 354 min; solubility thermodynamic [32]: 4.7 µg/mL (≈ 7.67 µM); clearance [25]: 11 mL/min/kg |
